Assay results taken from PubChem BioAssay AID1845210 (Molecular Pharmacology Branch, DTP, NCI, 2023).

Test system: NCI-H226 complex tumor spheroids, viability
Test: Anticancer human tumor NCI-H226 cell line growth inhibition;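 further: spheroids exposed to compound for 7 days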;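 on viability, T/C: 100% = DMSO vehicle control viability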
Details: for IC50: curve of first compound; for viability, T/C: stronger effect = lower value; active means viability on the fitted dose curve at most 10% of control; inactive means the rest
Outline: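 Complex tumor spheroids combined malignant cells with endothelial cells and mesenchymal stem cells. DNA-damaging drugs and DNA repair inhibitors were tested alone and in combination, at half-log dilutions down from clinical Cmax (top 10 microM if Cmax unknown), 0.25% DMSO final.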

[1] = second compound 30 pM, first compound 0.0316 µM
[2] = second compound 30 pM, first compound 0.1 µM
[3] = second compound 30 pM, first compound 0.316 µM
[4] = second compound 30 pM, first compound 1 µM
[5] = second compound 30 pM, first compound 3.16 µM
[6] = second compound 30 pM, first compound 10 µM
[7] = second compound 94.9 pM, first compound 0.0316 µM
[8] = second compound 94.9 pM, first compound 0.1 µM
[9] = second compound 94.9 pM, first compound 0.316 µM
[10] = second compound 94.9 pM, first compound 1 µM
[11] = second compound 94.9 pM, first compound 3.16 µM
[12] = second compound 94.9 pM, first compound 10 µM
[13] = second compound 0.0003 µM, first compound 0.0316 µM
[14] = second compound 0.0003 µM, first compound 0.1 µM
[15] = second compound 0.0003 µM, first compound 0.316 µM
[16] = second compound 0.0003 µM, first compound 1 µM
[17] = second compound 0.0003 µM, first compound 3.16 µM
[18] = second compound 0.0003 µM, first compound 10 µM
[19] = second compound 0.000949 µM, first compound 0.0316 µM
[20] = second compound 0.000949 µM, first compound 0.1 µM
[21] = second compound 0.000949 µM, first compound 0.316 µM
[22] = second compound 0.000949 µM, first compound 1 µM
[23] = second compound 0.000949 µM, first compound 3.16 µM
[24] = second compound 0.000949 µM, first compound 10 µM
[25] = second compound 0.003 µM, first compound 0.0316 µM
[26] = second compound 0.003 µM, first compound 0.1 µM
[27] = second compound 0.003 µM, first compound 0.316 µM
[28] = second compound 0.003 µM, first compound 1 µM
[29] = second compound 0.003 µM, first compound 3.16 µM
[30] = second compound 0.003 µM, first compound 10 µM

CC1COCCN1c1cc(-c2ccnn2C)c2ccnc(-c3ccn[nH]3)c2n1 (stereo not given) + COc1cc2c(cc1O)CCNC21CSC2c3c(OC(C)=O)c(C)c4c(c3C(COC1=O)N1C(O)C3Cc5cc(C)c(OC)c(O)c5C(C21)N3C)OCO4
3.12 µM: IC50 (second compound 30 pM)
active: viability, T/C [25] 1.51% | viability, T/C [26] 1.41% | viability, T/C [27] 1.32% | viability, T/C [28] 0.82% | viability, T/C [29] 0.74% | viability, T/C [30] 0.49%
< 0.0316 µM: IC50 (second compound 0.003 µM)
> 10 µM: IC50 (second compound 94.9 pM) | IC50 (second compound 0.0003 µM)
inactive: viability, T/C [1] 120% | viability, T/C [2] 108% | viability, T/C [3] 89.1% | viability, T/C [4] 61.3% | viability, T/C [5] 50.9% | viability, T/C [6] 45.2% | viability, T/C [7] 106% | viability, T/C [8] 112% | viability, T/C [9] 80% | viability, T/C [10] 62.1% | viability, T/C [11] 53.5% | viability, T/C [12] 50.4% | viability, T/C [13] 109% | viability, T/C [14] 108% | viability, T/C [15] 98.9% | viability, T/C [16] 71.3% | viability, T/C [17] 57.8% | viability, T/C [18] 56.7% | viability, T/C [19] 126% | viability, T/C [20] 102% | viability, T/C [21] 90.6% | viability, T/C [22] 58.8% | viability, T/C [23] 53% | viability, T/C [24] 43.5%
3.65 µM: IC50 (second compound 0.000949 µM)

COc1cc(C)[nH]c(=O)c1CN1CCc2c(Cl)cc(C(OC)C3COC3)c(Cl)c2C1=O (stereo not given) + COc1cc2c(cc1O)CCNC21CSC2c3c(OC(C)=O)c(C)c4c(c3C(COC1=O)N1C(O)C3Cc5cc(C)c(OC)c(O)c5C(C21)N3C)OCO4
inactive: viability, T/C [1] 115% | viability, T/C [2] 131% | viability, T/C [3] 128% | viability, T/C [4] 115% | viability, T/C [5] 126% | viability, T/C [6] 129% | viability, T/C [7] 103% | viability, T/C [8] 113% | viability, T/C [9] 125% | viability, T/C [10] 119% | viability, T/C [11] 127% | viability, T/C [12] 114% | viability, T/C [13] 133% | viability, T/C [14] 133% | viability, T/C [15] 130% | viability, T/C [16] 148% | viability, T/C [17] 140% | viability, T/C [18] 136% | viability, T/C [19] 103% | viability, T/C [20] 119% | viability, T/C [21] 111% | viability, T/C [22] 115% | viability, T/C [23] 114% | viability, T/C [24] 109%
> 10 µM: IC50 (second compound 30 pM) | IC50 (second compound 94.9 pM) | IC50 (second compound 0.0003 µM) | IC50 (second compound 0.000949 µM)
active: viability, T/C [25] 3.38% | viability, T/C [26] 1.73% | viability, T/C [27] 1.1% | viability, T/C [28] 1.4% | viability, T/C [29] 1.04% | viability, T/C [30] 0.69%
< 0.0316 µM: IC50 (second compound 0.003 µM)

Cc1cc(C)c(CNC(=O)c2cc(-c3ccc(CN4CCOCC4)cc3)cc3c2cnn3C2CCCC2)c(=O)[nH]1 + COc1cc2c(cc1O)CCNC21CSC2c3c(OC(C)=O)c(C)c4c(c3C(COC1=O)N1C(O)C3Cc5cc(C)c(OC)c(O)c5C(C21)N3C)OCO4
> 10 µM: IC50 (second compound 30 pM) | IC50 (second compound 94.9 pM) | IC50 (second compound 0.0003 µM) | IC50 (second compound 0.000949 µM)
< 0.0316 µM: IC50 (second compound 0.003 µM)
active: viability, T/C [25] 3.24% | viability, T/C [26] 1.05% | viability, T/C [27] 2.46% | viability, T/C [28] 0.49% | viability, T/C [29] 0.37% | viability, T/C [30] 0.44%
inactive: viability, T/C [1] 87.5% | viability, T/C [2] 106% | viability, T/C [3] 96.8% | viability, T/C [4] 93.8% | viability, T/C [5] 86.7% | viability, T/C [6] 95.8% | viability, T/C [7] 98.3% | viability, T/C [8] 100% | viability, T/C [9] 101% | viability, T/C [10] 96.6% | viability, T/C [11] 83.1% | viability, T/C [12] 91.8% | viability, T/C [13] 105% | viability, T/C [14] 115% | viability, T/C [15] 109% | viability, T/C [16] 110% | viability, T/C [17] 110% | viability, T/C [18] 93.3% | viability, T/C [19] 108% | viability, T/C [20] 104% | viability, T/C [21] 113% | viability, T/C [22] 103% | viability, T/C [23] 92.3% | viability, T/C [24] 97.8%

Cc1sc2c(c1C)C(c1ccc(Cl)cc1)=NC(CC(=O)Nc1ccc(O)cc1)c1nnc(C)n1-2 (stereo not given) + COc1cc2c(cc1O)CCNC21CSC2c3c(OC(C)=O)c(C)c4c(c3C(COC1=O)N1C(O)C3Cc5cc(C)c(OC)c(O)c5C(C21)N3C)OCO4
inactive: viability, T/C (second compound 30 pM, first compound 0.00949 µM) 97% | viability, T/C (second compound 30 pM, first compound 0.03 µM) 93.1% | viability, T/C (second compound 30 pM, first compound 0.0949 µM) 84% | viability, T/C (second compound 30 pM, first compound 0.3 µM) 84.9% | viability, T/C (second compound 30 pM, first compound 0.949 µM) 68% | viability, T/C (second compound 30 pM, first compound 3 µM) 64.8% | viability, T/C (second compound 94.9 pM, first compound 0.00949 µM) 105% | viability, T/C (second compound 94.9 pM, first compound 0.03 µM) 91.8% | viability, T/C (second compound 94.9 pM, first compound 0.0949 µM) 87.1% | viability, T/C (second compound 94.9 pM, first compound 0.3 µM) 77.6% | viability, T/C (second compound 94.9 pM, first compound 0.949 µM) 73.9% | viability, T/C (second compound 94.9 pM, first compound 3 µM) 66% | viability, T/C (second compound 0.0003 µM, first compound 0.00949 µM) 101% | viability, T/C (second compound 0.0003 µM, first compound 0.03 µM) 84.7% | viability, T/C (second compound 0.0003 µM, first compound 0.0949 µM) 75.2% | viability, T/C (second compound 0.0003 µM, first compound 0.3 µM) 75.9% | viability, T/C (second compound 0.0003 µM, first compound 0.949 µM) 72.6% | viability, T/C (second compound 0.0003 µM, first compound 3 µM) 48.7% | viability, T/C (second compound 0.000949 µM, first compound 0.00949 µM) 138% | viability, T/C (second compound 0.000949 µM, first compound 0.03 µM) 78.6% | viability, T/C (second compound 0.000949 µM, first compound 0.0949 µM) 68.2% | viability, T/C (second compound 0.000949 µM, first compound 0.3 µM) 67.1% | viability, T/C (second compound 0.000949 µM, first compound 0.949 µM) 19.7%
active: viability, T/C (second compound 0.000949 µM, first compound 3 µM) 7.53% | viability, T/C (second compound 0.003 µM, first compound 0.00949 µM) 2.09% | viability, T/C (second compound 0.003 µM, first compound 0.03 µM) 0.99% | viability, T/C (second compound 0.003 µM, first compound 0.0949 µM) 0.74% | viability, T/C (second compound 0.003 µM, first compound 0.3 µM) 0.28% | viability, T/C (second compound 0.003 µM, first compound 0.949 µM) 0.28% | viability, T/C (second compound 0.003 µM, first compound 3 µM) 0.51%
> 3 µM: IC50 (second compound 30 pM) | IC50 (second compound 94.9 pM) | IC50 (second compound 0.0003 µM)
< 0.00949 µM: IC50 (second compound 0.003 µM)
0.257 µM: IC50 (second compound 0.000949 µM)

[2H]c1nc(C)nc([2H])c1-c1cc(NC[C@@H](C)c2cccc3c(C(=O)NC)ccnc23)ncn1 + COc1cc2c(cc1O)CCNC21CSC2c3c(OC(C)=O)c(C)c4c(c3C(COC1=O)N1C(O)C3Cc5cc(C)c(OC)c(O)c5C(C21)N3C)OCO4
active: viability, T/C [25] 3.26% | viability, T/C [26] 3.28% | viability, T/C [27] 1.57% | viability, T/C [28] 2.56% | viability, T/C [29] 1.3% | viability, T/C [30] 0.8%
< 0.0316 µM: IC50 (second compound 0.003 µM)
inactive: viability, T/C [1] 99.6% | viability, T/C [2] 101% | viability, T/C [3] 93% | viability, T/C [4] 106% | viability, T/C [5] 111% | viability, T/C [6] 101% | viability, T/C [7] 99.1% | viability, T/C [8] 101% | viability, T/C [9] 100% | viability, T/C [10] 101% | viability, T/C [11] 103% | viability, T/C [12] 103% | viability, T/C [13] 105% | viability, T/C [14] 110% | viability, T/C [15] 115% | viability, T/C [16] 118% | viability, T/C [17] 98.7% | viability, T/C [18] 118% | viability, T/C [19] 105% | viability, T/C [20] 114% | viability, T/C [21] 102% | viability, T/C [22] 112% | viability, T/C [23] 101% | viability, T/C [24] 105%
> 10 µM: IC50 (second compound 30 pM) | IC50 (second compound 94.9 pM) | IC50 (second compound 0.0003 µM) | IC50 (second compound 0.000949 µM)
